Measurements: patent publication US20220370453A1 (Storm Therapeutics Ltd, priority 2019, published 2022)

Tests used:
BCDIN3D [1] = biological target: T1, BCDIN3D (Homo sapiens, UniProt Q7Z5W3); test: BCDIN3D IC50 RFMS (RapidFire) assay with mini-helix; type: biochemical; conditions: 25 nM enzyme
T1 sequence (Q7Z5W3 1-292): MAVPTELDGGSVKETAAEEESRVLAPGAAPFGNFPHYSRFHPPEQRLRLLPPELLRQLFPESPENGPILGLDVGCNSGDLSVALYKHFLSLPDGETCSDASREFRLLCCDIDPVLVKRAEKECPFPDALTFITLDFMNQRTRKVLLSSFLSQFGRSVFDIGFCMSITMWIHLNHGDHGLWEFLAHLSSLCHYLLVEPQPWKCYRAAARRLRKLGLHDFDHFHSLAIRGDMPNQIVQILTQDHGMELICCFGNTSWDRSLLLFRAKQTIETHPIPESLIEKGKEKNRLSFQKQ
In short: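 SAH formation was measured by RapidFire mass spectrometry with D4- and 13C10-SAH internal standards after TCA quench. Substrates 6 μM SAM and 0.2 μM mini-helix reacted 1 h at 37 °C with 25 nM enzyme, which had been preincubated 10 min with compound (1% DMSO) in Tris pH 8.0 buffer with DTT, EDTA, BSA.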

BCDIN3D [2] = biological target: T1, BCDIN3D; test: BCDIN3D InCellPulse thermal stability assay in transfected A549 cells; type: cell-based; conditions: heat shock 58° C. 15 min
In short: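 Thermal stabilisation read-out: after a 15 min 58 °C heat shock, ePL-tagged BCDIN3D in transiently transfected A549 cells (1500/well) was quantified by enzyme-fragment complementation luminescence. Compounds were pre-incubated with cells 1 h at 37 °C, 0.6% DMSO final.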

[3] = mini-helix substrate 0.2 μM, SAM 6 μM
[4] = transiently transfected A549 cells
[5] = mini-helix 0.2 μM and SAM 6 μM as substrates, 1 hr at 37° C.
[6] = A549 cells transiently transfected with ePL-BCDIN3D, 1 h pre-incubation

Row | SMILES | IC50 (BCDIN3D [1]; [3]) | IC50 (BCDIN3D [2]; [4]) | IC50 (BCDIN3D [1]; [5]) | IC50 (BCDIN3D [2]; [6])
1 | Cn1ncc2c(NC(C)(C)C)nc(NCC(N)c3ccccc3F)nc21 (stereo not drawn) [Compound 5.13, N6-[2-amino-2-(2-fluorophenyl)ethyl]-N4-tert-butyl-1-methyl-pyrazolo[3,4-d]pyrimidine-4,6-diamine] | 383 nM | 525 nM |  | 
2 | Cn1ncc2c(Nc3ccc(Cl)c(Cl)c3)nc(NCC3(N)CC3)nc21 [Compound 2.40, 6-N-[(1-aminocyclopropyl)methyl]-4-N-(3,4-dichlorophenyl)-1-methylpyrazolo[3,4-d]pyrimidine-4,6-diamine] | 33.3 nM | 234 nM |  | 
3 | Cn1ncc2c(Nc3ccc(OC(F)F)nc3)nc(NCC(C)(N)c3ccccc3)nc21 (stereo not drawn) [Compound 4.29, N6-(2-amino-2-phenyl-propyl)-N4-[6-(difluoromethoxy)-3-pyridyl]-1-methyl-pyrazolo[3,4-d]pyrimidine-4,6-diamine] | 116 nM | 525 nM |  | 
4 | Cn1ncc2c(Nc3ccc(C(F)(F)F)c(F)c3)nc(NCC3(N)CC3)nc21 [Compound 2.03, N6-[(1-aminocyclopropyl)methyl]-N4-[3-fluoro-4-(trifluoromethyl)phenyl]-1-methyl-pyrazolo[3,4-d]pyrimidine-4,6-diamine] | 20.7 nM | 282 nM |  | 
5 | CNc1nc(NCC(N)c2ccccc2)nc2c1cnn2C (stereo not drawn) [Compound 4.36, 6-N-(2-amino-2-phenylethyl)-4-N,1-dimethylpyrazolo[3,4-d]pyrimidine-4,6-diamine] | 554 nM | 1860 nM |  | 
6 | Cn1ncc2c(NCc3ccc(F)c(Cl)c3)nc(NCC(N)c3ccccc3)nc21 (stereo not drawn) [Compound 4.05, 6-N-(2-amino-2-phenylethyl)-4-N-[(3-chloro-4-fluorophenyl)methyl]-1-methylpyrazolo[3,4-d]pyrimidine-4,6-diamine] | 109 nM | 275 nM |  | 
7 | Cn1ncc2c(NC3CC(C)(F)C3)nc(NC[C@H](N)c3ccccc3)nc21 (stereo partly drawn) [Compound 4.97, N6-[(2R)-2-amino-2-phenyl-ethyl]-N4-(3-fluoro-3-methyl-cyclobutyl)-1-methyl-pyrazolo[3,4-d]pyrimidine-4,6-diamine] | 84.3 nM | 176 nM |  | 
8 | Cn1ncc2c(NCc3cccc(C(F)(F)F)c3)nc(NCCN)nc21 [Compound 1.23, N6-(2-aminoethyl)-1-methyl-N4-{[3-(trifluoromethyl)phenyl]methyl}-1H-pyrazolo[3,4-d]pyrimidine-4,6-diamine] |  |  | 7720 nM | 8470 nM
9 | COc1cccc(-c2ccc(Nc3nc(NCCN)nc4c3cnn4C)cc2)c1 [Compound 1.14, N6-(2-aminoethyl)-N4-{3′-methoxy-[1,1′-biphenyl]-4-yl}-1-methyl-1H-pyrazolo[3,4-d]pyrimidine-4,6-diamine] |  |  | 568 nM | 754 nM
10 | Cn1ncc2c(Nc3cccc(F)c3F)nc(NCC3(N)CC3)nc21 [Compound 2.24, 6-N-[(1-aminocyclopropyl)methyl]-4-N-(2,3-difluorophenyl)-1-methylpyrazolo[3,4-d]pyrimidine-4,6-diamine] | 2460 nM | 3500 nM |  | 
11 | COCC(N)CNc1nc(NCc2ccc(C)c(Cl)c2)c2cnn(C)c2n1 (stereo not drawn) [Compound 3.27, 6-N-(2-amino-3-methoxypropyl)-4-N-[(3-chloro-4-methylphenyl)methyl]-1-methylpyrazolo[3,4-d]pyrimidine-4,6-diamine] | 4310 nM | 4790 nM |  | 
12 | Cn1ncc2c(Nc3ccc(C(F)(F)F)cc3)nc(NCC3(N)CCC3)nc21 [Compound 3.08, N6-[(1-aminocyclobutyl)methyl]-1-methyl-N4-[4-(trifluoromethyl)phenyl]pyrazolo[3,4-d]pyrimidine-4,6-diamine] | 50.5 nM | 259 nM |  | 
13 | Cn1ncc2c(NCC3CC3(Cl)Cl)nc(NC[C@H](N)c3ccccc3)nc21 (stereo partly drawn) [Compound 4.115, N6-[(2R)-2-amino-2-phenyl-ethyl]-N4-[(2,2-dichlorocyclopropyl)methyl]-1-methyl-pyrazolo[3,4-d]pyrimidine-4,6-diamine] | 39 nM | 271 nM |  | 
14 | Cn1ncc2c(NCc3ccc(Br)cc3)nc(NCC(N)c3ccccc3)nc21 (stereo not drawn) [Compound 4.07, 6-N-(2-amino-2-phenylethyl)-4-N-[(4-bromophenyl)methyl]-1-methylpyrazolo[3,4-d]pyrimidine-4,6-diamine] | 132 nM | 282 nM |  | 
15 | Cn1ncc2c(NC3(C)CCCC3)nc(NC[C@H](N)c3ccccc3)nc21 [Compound 4.116, N6-[(2R)-2-amino-2-phenyl-ethyl]-1-methyl-N4-(1-methylcyclopentyl)pyrazolo[3,4-d]pyrimidine-4,6-diamine] | 151 nM | 123 nM |  | 
16 | Cn1ncc2c(Nc3ccc(C(F)(F)F)cc3)nc(NCC(C)(N)c3ccccc3)nc21 (stereo not drawn) [Compound 4.19, N6-(2-amino-2-phenyl-propyl)-1-methyl-N4-[4-(trifluoromethyl)phenyl]pyrazolo[3,4-d]pyrimidine-4,6-diamine] | 36.1 nM | 86.4 nM |  | 
17 | Cn1ncc2c(Nc3ccc(OC(F)F)cc3)nc(NCC(N)c3ccccc3)nc21 (stereo not drawn) [Compound 4.14, 6-N-(2-amino-2-phenylethyl)-4-N-[4-(difluoromethoxy)phenyl]-1-methylpyrazolo[3,4-d]pyrimidine-4,6-diamine] | 89.5 nM | 206 nM |  | 
18 | Cn1ncc2c(NCc3ccc(F)cc3F)nc(NCC3(N)CC3)nc21 [Compound 2.26] | 1000 nM | 4650 nM |  | 
19 | Cn1ncc2c(NC(C)(C)C)nc(NC[C@@H](N)c3ccccc3F)nc21 [Compound 7.11, N6-[(2S)-2-amino-2-(2-fluorophenyl)ethyl]-N4-tert-butyl-1-methyl-pyrazolo[3,4-d]pyrimidine-4,6-diamine] |  |  | 181 nM | 4180 nM
20 | Cn1ncc2c(NC3CC3)nc(NCC(N)c3ccccc3)nc21 (stereo not drawn) [Compound 4.43, 6-N-(2-amino-2-phenylethyl)-4-N-cyclopropyl-1-methylpyrazolo[3,4-d]pyrimidine-4,6-diamine] | 2560 nM | 4200 nM |  | 
21 | [2H]C([2H])([2H])n1ncc2c(NC(C)(C)C)nc(NCC(N)c3ccccc3)nc21 (stereo not drawn) [Compound 4.52, N6-(2-amino-2-phenyl-ethyl)-N4-tert-butyl-1-(trideuteriomethyl)pyrazolo[3,4-d]pyrimidine-4,6-diamine] | 169 nM | 536 nM |  | 
22 | Cn1ncc2c(NCC3CC34CC4)nc(NC[C@H](N)c3ccccc3)nc21 (stereo partly drawn) [Compound 4.60, N6-[(2R)-2-amino-2-phenyl-ethyl]-1-methyl-N4-(spiro[2.2]pentan-2-ylmethyl)pyrazolo[3,4-d]pyrimidine-4,6-diamine] | 6.1 nM | 44.4 nM |  | 
23 | COCCNc1nc(NCC(N)c2ccccc2)nc2c1cnn2C (stereo not drawn) [Compound 4.49, 6-N-(2-amino-2-phenylethyl)-4-N-(2-methoxyethyl)-1-methylpyrazolo[3,4-d]pyrimidine-4,6-diamine] | 3390 nM | 6060 nM |  | 
24 | C[C@H](Nc1nc(NC[C@H](N)c2ccccc2)nc2c1cnn2C)C1CC1 [Compound 4.102, N6-[(2R)-2-amino-2-phenyl-ethyl]-N4-[(1S)-1-cyclopropylethyl]-1-methyl-pyrazolo[3,4-d]pyrimidine-4,6-diamine] | 4380 nM | 2630 nM |  | 
25 | Cn1ncc2c(NCc3ccc(C(F)(F)F)nc3)nc(NCC3(N)CC3)nc21 [Compound 2.19, 6-N-[(1-aminocyclopropyl)methyl]-1-methyl-4-N-[[6-(trifluoromethyl)pyridin-3-yl]methyl]pyrazolo[3,4-d]pyrimidine-4,6-diamine] | 7120 nM | 11700 nM |  | 
26 | Cc1ccc(CNc2nc(NC3CCCCC3N)nc3c2cnn3C)cc1Cl (stereo not drawn) [Compound 1.34, 6-N-(2-aminocyclohexyl)-4-N-[(3-chloro-4-methylphenyl)methyl]-1-methylpyrazolo[3,4-d]pyrimidine-4,6-diamine] |  |  | 1140 nM | 1410 nM
27 | Cn1ncc2c(Nc3ccc(C#N)cc3)nc(NCC3(N)CC3)nc21 [Compound 2.31, 4-[[6-[(1-aminocyclopropyl)methylamino]-1-methylpyrazolo[3,4-d]pyrimidin-4-yl]amino]benzonitrile] | 976 nM | 8240 nM |  | 
28 | CC(C)CNc1nc(NC[C@H](N)c2ccccc2)nc2c1cnn2C [Compound 4.103, N6-[(2R)-2-amino-2-phenyl-ethyl]-N4-isobutyl-1-methyl-pyrazolo[3,4-d]pyrimidine-4,6-diamine] | 321 nM | 480 nM |  | 
29 | Cn1ncc2c(Nc3cc(F)c(Cl)c(F)c3)nc(NCC3(N)CC3)nc21 [Compound 2.20, 6-N-[(1-aminocyclopropyl)methyl]-4-N-(4-chloro-3,5-difluorophenyl)-1-methylpyrazolo[3,4-d]pyrimidine-4,6-diamine] | 179 nM | 887 nM |  | 
30 | Cn1ncc2c(Nc3ccc(C(F)(F)F)cc3)nc(NCC(N)c3ccccc3)nc21 (stereo not drawn) [Compound 4.17, 6-N-(2-amino-2-phenylethyl)-1-methyl-4-N-[4-(trifluoromethyl)phenyl]pyrazolo[3,4-d]pyrimidine-4,6-diamine] | 50.1 nM | 178 nM |  | 
